Consider 20 compounds from patent publication US12577206B2 (BRISTOL-MYERS SQUIBB COMPANY, priority 2020, dated 2026).

As usually defined, the EC50 is the midpoint of the concentration-response curve.

Experiment [1] addresses T1, human FPR2 (Homo sapiens, UniProt P25090).
T1 sequence (P25090 1-351): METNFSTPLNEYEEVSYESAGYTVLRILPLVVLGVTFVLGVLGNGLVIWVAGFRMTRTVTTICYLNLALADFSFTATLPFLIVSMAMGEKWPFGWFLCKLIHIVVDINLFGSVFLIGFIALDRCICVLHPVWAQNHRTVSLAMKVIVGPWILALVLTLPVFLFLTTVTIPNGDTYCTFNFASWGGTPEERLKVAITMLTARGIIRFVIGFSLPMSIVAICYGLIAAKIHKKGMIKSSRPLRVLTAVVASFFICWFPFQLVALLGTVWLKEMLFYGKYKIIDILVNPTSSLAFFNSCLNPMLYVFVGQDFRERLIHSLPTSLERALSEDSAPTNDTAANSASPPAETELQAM
The experiment in a line: FPR2 cyclic adenosine monophosphate (cAMP) assay. In kind it is cell-based. The following applies: CHO cells overexpressing human FPR2; forskolin 5 μM; inhibition of cAMP production; HTRF; read-out: hFPR2 cAMP2 EC50. The method in brief: (§1)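 Inhibition of forskolin-stimulated cAMP (final forskolin 5 μM for FPR2, 10 μM for FPR1; IBMX 200 μM) was measured by HTRF in recombinant CHO cells after 30 min at room temperature.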

Experiment [2] concerns the target T2, human FPR1 (Homo sapiens, UniProt P21462).
T2 sequence (P21462 1-350): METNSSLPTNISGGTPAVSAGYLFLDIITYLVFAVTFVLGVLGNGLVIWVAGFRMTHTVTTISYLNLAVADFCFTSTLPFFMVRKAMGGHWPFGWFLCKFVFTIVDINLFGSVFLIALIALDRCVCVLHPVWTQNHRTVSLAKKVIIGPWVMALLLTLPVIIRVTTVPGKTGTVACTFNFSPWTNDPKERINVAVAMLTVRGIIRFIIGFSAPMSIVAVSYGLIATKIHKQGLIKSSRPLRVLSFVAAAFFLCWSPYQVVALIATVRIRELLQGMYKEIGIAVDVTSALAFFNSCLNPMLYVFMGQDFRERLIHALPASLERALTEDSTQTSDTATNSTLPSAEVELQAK
The experiment can be described thus: FPR1 cyclic adenosine monophosphate (cAMP) assay. It counts as cell-based. Particulars: CHO cells overexpressing human FPR1; forskolin 10 μM; inhibition of cAMP production; HTRF; read-out: hFPR1 cAMP2 EC50. The gist of the method: as §1
Background: Changes in cAMP serve as a functional read-out for many G protein-coupled receptors.

`COc1cc(F)c(-c2c(NC(=O)c3ccc(Cl)cc3)c(=O)n(-c3ccc(Cl)cc3)n2C)c(F)c1` [Example 36, 4-chloro-N-[2-(4-chlorophenyl)-5-(2,6-difluoro-4-methoxyphenyl)-1-methyl-3-oxo-2,3-dihydro-1H-pyrazol-4-yl]benzamide]: the EC50 in experiment [1] worked out at 9 nM; in experiment [2], 270 nM.
With `COc1cc(F)c(-c2c(NC(=O)c3ccc(OC(F)F)cc3)c(=O)n(-c3nc(NC4CC4)ccc3C(F)(F)F)n2C)c(F)c1` [Example 251, N-{2-[6-(cyclopropylamino)-3-(trifluoromethyl)pyridin-2-yl]-5-(2,6-difluoro-4-methoxyphenyl)-1-methyl-3-oxo-2,3-dihydro-1H-pyrazol-4-yl}-4-(difluoromethoxy)benzamide], the results for the half-maximal effective concentration (EC50) in experiment [1] and in experiment [2] were 2 nM and over 10000 nM, respectively.
As for `COc1cc(F)c(-c2c(NC(=O)c3ccc(OC(F)F)cc3)c(=O)n(C(C)C)n2C)c(F)c1` [Example 18, N-[5-(2,6-difluoro-4-methoxyphenyl)-1-methyl-3-oxo-2-(propan-2-yl)-2,3-dihydro-1H-pyrazol-4-yl]-4-(difluoromethoxy)benzamide], the concentration giving a half-maximal response (EC50) came out at 53 nM in experiment [1] and 4100 nM in experiment [2].
In the case of `COc1cc(F)c(-c2c(NC(=O)c3ccc(OC(F)F)cc3)c(=O)n(-c3nc(CO)ccc3C(F)(F)F)n2C)c(F)c1` [Example 195, N-[5-(2,6-difluoro-4-methoxyphenyl)-2-[6-(hydroxymethyl)-3-(trifluoromethyl)pyridin-2-yl]-1-methyl-3-oxo-2,3-dihydro-1H-pyrazol-4-yl]-4-(difluoromethoxy)benzamide], the EC50 was 14 nM in experiment [1] and over 10000 nM in experiment [2].
Turning to `COc1cc(F)c(-c2c(NC(=O)c3ccc(OC(F)F)cc3)c(=O)n(-c3nc(Cl)ccc3F)n2C)c(F)c1` [Example 146, N-[2-(6-chloro-3-fluoropyridin-2-yl)-5-(2,6-difluoro-4-methoxyphenyl)-1-methyl-3-oxo-2,3-dihydro-1H-pyrazol-4-yl]-4-(difluoromethoxy)benzamide], the EC50 in experiment [1] was 6 nM; in experiment [2], over 10000 nM.
As to `COc1cc(F)c(-c2c(NC(=O)c3ccc(OC(F)F)cc3)c(=O)n(-c3cccc(F)c3C#N)n2C)c(F)c1` [Example 178, N-[2-(2-cyano-3-fluorophenyl)-5-(2,6-difluoro-4-methoxyphenyl)-1-methyl-3-oxo-2,3-dihydro-1H-pyrazol-4-yl]-4-(difluoromethoxy)benzamide], the EC50 in experiment [1] is 6 nM; in experiment [2], over 10000 nM.
In the same order, the values of `COc1cc(F)c(-c2c(NC(=O)c3ccc(OC(F)F)cc3)c(=O)n(-c3cc(OCC4CCCO4)cc(C)n3)n2C)c(F)c1` (stereo not shown) [Example 391, N-(5-(2,6-Difluoro-4-methoxyphenyl)-1-methyl-2-(6-methyl-4-((tetrahydrofuran-2-yl)methoxy)pyridin-2-yl)-3-oxo-2,3-dihydro-1H-pyrazol-4-yl)-4-(difluoromethoxy)benzamide] are 6 nM and 240 nM.
As for `COc1cc(F)c(-c2c(NC(=O)c3ccc(OC(F)F)cc3)c(=O)n(-c3nc(OCCO)ccc3C(F)(F)F)n2C)c(F)c1` [Example 285, N-[5-(2,6-difluoro-4-methoxyphenyl)-2-[6-(2-hydroxyethoxy)-3-(trifluoromethyl)pyridin-2-yl]-1-methyl-3-oxo-2,3-dihydro-1H-pyrazol-4-yl]-4-(difluoromethoxy)benzamide], the half-maximal effective concentration (EC50) in experiment [1] is 2 nM; in experiment [2] it was over 10000 nM.
Turning to `COc1cc(F)c(-c2c(NC(=O)c3ccc(C(F)(F)F)cc3)c(=O)n(-c3ccccc3)n2C)c(F)c1` [Example 5, N-[5-(2,6-difluoro-4-methoxyphenyl)-1-methyl-3-oxo-2-phenyl-2,3-dihydro-1H-pyrazol-4-yl]-4-(trifluoromethyl)benzamide], the results for the concentration giving a half-maximal response (EC50) in experiment [1] and in experiment [2] were 10 nM and 2900 nM, respectively.
`CCc1cc(F)c(-c2c(NC(=O)c3ccc(OC(F)(F)F)cc3)c(=O)n(-c3cccc(C(C)(C)O)n3)n2C)c(F)c1` [Example 403, N-(5-(4-ethyl-2,6-difluorophenyl)-2-(6-(2-hydroxypropan-2-yl)pyridin-2-yl)-1-methyl-3-oxo-2,3-dihydro-1H-pyrazol-4-yl)-4-(trifluoromethoxy)benzamide]: the half-maximal effective concentration (EC50) in experiment [1] was 6 nM; in experiment [2] it was 1700 nM.
On to `COc1ccc(-c2c(NC(=O)c3ccc(OC(F)F)cc3)c(=O)n(-c3ncccc3Cl)n2C)cc1` [Example 245, N-[2-(3-chloropyridin-2-yl)-5-(4-methoxyphenyl)-1-methyl-3-oxo-2,3-dihydro-1H-pyrazol-4-yl]-4-(difluoromethoxy)benzamide], for which the EC50 worked out at 20 nM in experiment [1] and 1200 nM in experiment [2].
As to `COc1cc(F)c(-c2c(NC(=O)c3ccc(OC(F)F)cc3)c(=O)n(-c3cc(OC)c(C)cn3)n2C)c(F)c1` [Example 77, N-[5-(2,6-difluoro-4-methoxyphenyl)-2-(4-methoxy-5-methylpyridin-2-yl)-1-methyl-3-oxo-2,3-dihydro-1H-pyrazol-4-yl]-4-(difluoromethoxy)benzamide], the EC50 in experiment [1] is 17 nM; in experiment [2] it was 620 nM.
For `COc1cc(F)c(-c2c(NC(=O)c3ccc(OC(F)F)cc3)c(=O)n(-c3nc(NC[C@H](O)C(F)(F)F)ccc3C(F)(F)F)n2C)c(F)c1` [Example 274, N-[5-(2,6-difluoro-4-methoxyphenyl)-1-methyl-3-oxo-2-(6-{[(2S)-3,3,3-trifluoro-2-hydroxypropyl]amino}-3-(trifluoromethyl)pyridin-2-yl)-2,3-dihydro-1H-pyrazol-4-yl]-4-(difluoromethoxy)benzamide], the EC50 in experiment [1] was 2 nM; in experiment [2], over 5000 nM.
For the compound `[2H]C([2H])([2H])Oc1cc(F)c(-c2c(NC(=O)c3ccc(OC(F)(F)F)cc3)c(=O)n(-c3cc(C(F)(F)F)ccn3)n2C)c(F)c1` [Example 402, N-(5-(2,6-difluoro-4-(methoxy-d3)phenyl)-1-methyl-3-oxo-2-(4-(trifluoromethyl)pyridin-2-yl)-2,3-dihydro-1H-pyrazol-4-yl)-4-(trifluoromethoxy)benzamide], the concentration giving a half-maximal response (EC50) in experiment [1] is 5 nM; in experiment [2], over 10000 nM.
For the compound `COc1cc(F)c(-c2c(NC(=O)c3ccc(OC(F)F)cc3)c(=O)n(-c3nc(N4CC[C@@H](CO)C4)ccc3C(F)(F)F)n2C)c(F)c1` [Example 292, N-[5-(2,6-difluoro-4-methoxyphenyl)-2-{6-[(3R)-3-(hydroxymethyl)pyrrolidin-1-yl]-3-(trifluoromethyl)pyridin-2-yl}-1-methyl-3-oxo-2,3-dihydro-1H-pyrazol-4-yl]-4-(difluoromethoxy)benzamide], the concentration for a half-maximal effect (EC50) in experiment [1] stood at 2 nM; in experiment [2], 4100 nM.
Turning to `COc1cc(F)c(-c2c(NC(=O)c3ccc(OC(F)F)cc3)c(=O)n(-c3ccccc3C#N)n2C)c(F)c1` [Example 173, N-[2-(2-cyanophenyl)-5-(2,6-difluoro-4-methoxyphenyl)-1-methyl-3-oxo-2,3-dihydro-1H-pyrazol-4-yl]-4-(difluoromethoxy)benzamide], the EC50 was 20 nM in experiment [1] and over 10000 nM in experiment [2].
As for `COc1cc(F)c(-c2c(NC(=O)c3ccc(OC(F)F)cc3)c(=O)n(-c3cccc(Cl)c3Cl)n2C)c(F)c1` [Example 34, N-[2-(2,3-dichlorophenyl)-5-(2,6-difluoro-4-methoxyphenyl)-1-methyl-3-oxo-2,3-dihydro-1H-pyrazol-4-yl]-4-(difluoromethoxy)benzamide], the EC50 in experiment [1] came out at 4 nM; in experiment [2] it was 1900 nM.
In the same order, the values of `COc1cc(F)c(-c2c(NC(=O)c3ccc(OC(F)F)cc3)c(=O)n(-c3cc(C)cc(Cl)c3)n2C)c(F)c1` [Example 134, N-[2-(3-chloro-5-methylphenyl)-5-(2,6-difluoro-4-methoxyphenyl)-1-methyl-3-oxo-2,3-dihydro-1H-pyrazol-4-yl]-4-(difluoromethoxy)benzamide] are 10 nM and over 10000 nM.
Take `COc1cc(F)c(-c2c(NC(=O)c3ccc(OC(F)F)cc3)c(=O)n(-c3ccccc3)n2C)c(F)c1` [Example 1, N-[5-(2,6-difluoro-4-methoxyphenyl)-1-methyl-3-oxo-2-phenyl-2,3-dihydro-1H-pyrazol-4-yl]-4-(difluoromethoxy)benzamide]: the results for the EC50 in experiment [1] and in experiment [2] were 12 nM and 2400 nM, respectively.
Regarding `CCOc1ccc(C(F)(F)F)c(-n2c(=O)c(NC(=O)c3ccc(OC(F)F)cc3)c(-c3c(F)cc(OC)cc3F)n2C)n1` [Example 286, N-[5-(2,6-difluoro-4-methoxyphenyl)-2-[6-ethoxy-3-(trifluoromethyl)pyridin-2-yl]-1-methyl-3-oxo-2,3-dihydro-1H-pyrazol-4-yl]-4-(difluoromethoxy)benzamide], the results for the 50% effective concentration (EC50) in experiment [1] and in experiment [2] were 3 nM and over 5000 nM, respectively.
